In patent US8476408B2, “Unacylated ghrelin and analogs as therapeutic agents for vascular remodeling in diabetic patients and treatment of cardiovascular disease” (Alize Pharma SAS, priority 2008, dated 2013):
Where no end group is shown, it is not given here.

Test system: CAC membranes
Test: Competition binding with [125I-Tyr4]-UAG on CAC membranes
Design: species or system human
Details: 100 nM unlabelled competitor, radioligand 0.25 nM; FIG. 5A
Source text: The specific binding of [^125I-Tyr^4]-UAG (calculated as difference between binding in the absence, control, and in the presence of UAG) represented about 75% of the control value (P<0.001) and was detected either on fresh (0.25 and 0.26 fmol) or frozen-thawed (0.20 and 0.33 fmol) CAC membranes from two different cell preparations.

1-NH2Gly-Ser-Ser-Phe-Leu-Ser-Pro-Glu-His-Gln-Arg-Val-Gln-Gln-Arg-Lys-Glu-Ser-Lys-Lys-Pro-Pro-Ala-Lys-Leu-Gln-Pro-Arg-28 (GSSFLSPEHQRVQQRKESKKPPAKLQPR; ends and bridges not checked; listed as Homo sapiens) [UAG]
inhibition of binding of [125I-Tyr4]-UAG to CAC membranes: inhibited
